Source: the NIST ThermoML archive (doi:10.1021/acs.jced.6b00504)
Numbers after ± are expanded uncertainties.

Assay: wn = mass fraction of the nth substance listed
Details: 100 kPa, Liquid; for viscosity: Falling or rolling sphere viscometry; for mass density: Vibrating tube method

Compound: CNCCO [2-(methylamino)ethanol] + O
- viscosity (293.15 K, w1 = 0.075): 1.39 ± 0.012 mPa·s
- viscosity (293.15 K, w1 = 0.15): 1.875 ± 0.017 mPa·s
- viscosity (293.15 K, w1 = 0.225): 2.702 ± 0.024 mPa·s
- viscosity (293.15 K, w1 = 0.3): 3.973 ± 0.036 mPa·s
- mass density (293.15 K, w1 = 0.075): 997.66 ± 5.8 kg/m3
- mass density (293.15 K, w1 = 0.15): 997.93 ± 5.8 kg/m3
- mass density (293.15 K, w1 = 0.225): 999 ± 5.8 kg/m3
- mass density (293.15 K, w1 = 0.3): 1001.69 ± 5.8 kg/m3
- viscosity (298.15 K, w1 = 0.075): 1.217 ± 0.011 mPa·s
- viscosity (298.15 K, w1 = 0.15): 1.639 ± 0.015 mPa·s
- viscosity (298.15 K, w1 = 0.225): 2.367 ± 0.021 mPa·s
- viscosity (298.15 K, w1 = 0.3): 3.335 ± 0.03 mPa·s
- mass density (298.15 K, w1 = 0.075): 996.35 ± 5.8 kg/m3
- mass density (298.15 K, w1 = 0.15): 996.35 ± 5.8 kg/m3
- mass density (298.15 K, w1 = 0.225): 997.03 ± 5.8 kg/m3
- mass density (298.15 K, w1 = 0.3): 999.21 ± 5.8 kg/m3
- viscosity (303.15 K, w1 = 0.075): 1.075 ± 0.01 mPa·s
- viscosity (303.15 K, w1 = 0.15): 1.426 ± 0.013 mPa·s
- viscosity (303.15 K, w1 = 0.225): 2.02 ± 0.018 mPa·s
- viscosity (303.15 K, w1 = 0.3): 2.886 ± 0.026 mPa·s
- mass density (303.15 K, w1 = 0.075): 994.81 ± 5.8 kg/m3
- mass density (303.15 K, w1 = 0.15): 994.57 ± 5.8 kg/m3
- mass density (303.15 K, w1 = 0.225): 994.9 ± 5.8 kg/m3
- mass density (303.15 K, w1 = 0.3): 996.58 ± 5.8 kg/m3
- viscosity (308.15 K, w1 = 0.075): 0.958 ± 0.009 mPa·s
- viscosity (308.15 K, w1 = 0.15): 1.263 ± 0.011 mPa·s
- viscosity (308.15 K, w1 = 0.225): 1.744 ± 0.016 mPa·s
- viscosity (308.15 K, w1 = 0.3): 2.461 ± 0.022 mPa·s
- mass density (308.15 K, w1 = 0.075): 993.06 ± 5.8 kg/m3
- mass density (308.15 K, w1 = 0.15): 992.6 ± 5.8 kg/m3
- mass density (308.15 K, w1 = 0.225): 992.58 ± 5.8 kg/m3
- mass density (308.15 K, w1 = 0.3): 993.8 ± 5.8 kg/m3
- viscosity (313.15 K, w1 = 0.075): 0.859 ± 0.008 mPa·s
- viscosity (313.15 K, w1 = 0.15): 1.151 ± 0.01 mPa·s
- viscosity (313.15 K, w1 = 0.225): 1.521 ± 0.014 mPa·s
- viscosity (313.15 K, w1 = 0.3): 2.157 ± 0.019 mPa·s
- mass density (313.15 K, w1 = 0.075): 991.11 ± 5.8 kg/m3
- mass density (313.15 K, w1 = 0.15): 990.45 ± 5.8 kg/m3
- mass density (313.15 K, w1 = 0.225): 990.11 ± 5.8 kg/m3
- mass density (313.15 K, w1 = 0.3): 990.81 ± 5.8 kg/m3
- viscosity (318.15 K, w1 = 0.075): 0.777 ± 0.007 mPa·s
- viscosity (318.15 K, w1 = 0.15): 1.022 ± 0.009 mPa·s
- viscosity (318.15 K, w1 = 0.225): 1.409 ± 0.013 mPa·s
- viscosity (318.15 K, w1 = 0.3): 1.902 ± 0.017 mPa·s
- mass density (318.15 K, w1 = 0.075): 988.99 ± 5.8 kg/m3
- mass density (318.15 K, w1 = 0.15): 988.13 ± 5.8 kg/m3
- mass density (318.15 K, w1 = 0.225): 987.49 ± 5.8 kg/m3
- mass density (318.15 K, w1 = 0.3): 987.7 ± 5.8 kg/m3
- viscosity (323.15 K, w1 = 0.075): 0.707 ± 0.006 mPa·s
- viscosity (323.15 K, w1 = 0.15): 0.993 ± 0.009 mPa·s
- viscosity (323.15 K, w1 = 0.225): 1.299 ± 0.012 mPa·s
- viscosity (323.15 K, w1 = 0.3): 1.727 ± 0.016 mPa·s
- mass density (323.15 K, w1 = 0.075): 986.7 ± 5.8 kg/m3
- mass density (323.15 K, w1 = 0.15): 985.66 ± 5.8 kg/m3
- mass density (323.15 K, w1 = 0.225): 984.71 ± 5.8 kg/m3
- mass density (323.15 K, w1 = 0.3): 984.5 ± 5.8 kg/m3
